According to article PMC5949855 (2015):

What was measured:
[1] = test system: HT21 (DNA, G4) GGGTTAGGGTTAGGGTTAGGG; test: UV melting; details: NH4+ 30 mM, compound concentration not given in material
[2] = test system: HT21 (DNA, G4) GGGTTAGGGTTAGGGTTAGGG; test: ITC; details: for K a1: two-event model, high-affinity site
[3] = test system: L-HT21 (L-DNA, G4, all nucleotides L-DNA (enantiomer of HT21)) GGGTTAGGGTTAGGGTTAGGG; test: CD; details: NH4+ 30 mM; mirror image CD of the HT21 complex
[4] = test system: HT21 (DNA, G4) GGGTTAGGGTTAGGGTTAGGG; test: UV melting, 295 nm; details: no monovalent cation added; compound concentration not given in material
[5] = value given for CuL1-CuL4 together
[6] = NH4+ 30 mM, 20 mM MOPS pH 6.5, 298 K

SMILES	ΔTm [1]	ΔTm [1, 5]	K a1 [2, 6]	other results
O=[N+]([O-])[O-].O=[N+]([O-])[O-].[Cu+2].c1ccc(-c2cccc(-c3ccccn3)n2)nc1	~ 5 °C			binding ([2]; NH4+ 30 mM, 20 mM MOPS pH 6.5, 298 K, affinity too low to be determined): weak
Cc1ccc(-c2cc(-c3ccccn3)nc(-c3ccccn3)c2)cc1.O=[N+]([O-])[O-].O=[N+]([O-])[O-].[Cu+2]	~ 10 °C			Ka ([2]; NH4+ 30 mM, 20 mM MOPS pH 6.5, 298 K, one-event binding model): (2.0 ± 0.5) × 10^5 M^–1

Second part, led by results:

ΔTm [1]	ΔTm [1, 5]	K a1 [2, 6]	SMILES	other results
	~ 20 °C	(1.7 ± 0.2) × 10^7 M^–1	O=[N+]([O-])[O-].O=[N+]([O-])[O-].[Cu+2].c1ccc(-c2cc(-c3ccc(OCCN4CCCC4)cc3)cc(-c3ccccn3)n2)nc1	binding [3]: yes; ΔTm [4]: ~ 13 °C; Ka ([2]; no monovalent cation added, 298 K, three-event model, first (strongest) event): (1.5±0.6)E8 M^-1
	~ 20 °C	(1.7 ± 0.3) × 10^7 M^–1	CN(C)CCOc1ccc(-c2cc(-c3ccccn3)nc(-c3ccccn3)c2)cc1.O=[N+]([O-])[O-].O=[N+]([O-])[O-].[Cu+2]	
	~ 20 °C	(1.7 ± 0.3) × 10^7 M^–1	O=[N+]([O-])[O-].O=[N+]([O-])[O-].[Cu+2].c1ccc(-c2cc(-c3ccc(OCCN4CCCCC4)cc3)cc(-c3ccccn3)n2)nc1	
	~ 20 °C	(1.7 ± 0.3) × 10^7 M^–1	O=[N+]([O-])[O-].O=[N+]([O-])[O-].[Cu+2].c1ccc(-c2cc(-c3ccc(OCCN4CCOCC4)cc3)cc(-c3ccccn3)n2)nc1	
